Measurements published in ChEMBL document CHEMBL1201862, “PubChem BioAssay data set” (2004).
Calls of active or inactive are those of the source. Rule as the data show it, for most assays here: actives have a measured EC50 and inactives only a lower limit.

How the values were obtained:
[1] = target: T1, Corticotropin-releasing factor receptor 2/Corticotropin-releasing factor-binding protein (Homo sapiens, UniProt P24387+Q13324); assay: Dose Response confirmation of uHTS hits for small molecule antagonists of the CRF-binding protein and CRF-R2 receptor complex.; format: functional; conditions: read-out: IC50_Mean
T1 sequence (Q13324 whole entry): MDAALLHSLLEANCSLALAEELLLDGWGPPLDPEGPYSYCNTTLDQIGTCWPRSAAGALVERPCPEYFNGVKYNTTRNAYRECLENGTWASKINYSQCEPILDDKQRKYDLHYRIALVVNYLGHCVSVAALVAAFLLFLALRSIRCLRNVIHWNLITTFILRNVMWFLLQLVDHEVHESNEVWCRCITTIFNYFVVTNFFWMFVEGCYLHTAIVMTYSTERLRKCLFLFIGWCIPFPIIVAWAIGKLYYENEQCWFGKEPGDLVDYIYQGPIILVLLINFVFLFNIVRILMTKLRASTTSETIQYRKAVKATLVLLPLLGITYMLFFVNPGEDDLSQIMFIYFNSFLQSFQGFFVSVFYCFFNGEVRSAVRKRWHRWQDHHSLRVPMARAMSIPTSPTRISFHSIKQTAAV
T1 sequence (P24387 whole entry): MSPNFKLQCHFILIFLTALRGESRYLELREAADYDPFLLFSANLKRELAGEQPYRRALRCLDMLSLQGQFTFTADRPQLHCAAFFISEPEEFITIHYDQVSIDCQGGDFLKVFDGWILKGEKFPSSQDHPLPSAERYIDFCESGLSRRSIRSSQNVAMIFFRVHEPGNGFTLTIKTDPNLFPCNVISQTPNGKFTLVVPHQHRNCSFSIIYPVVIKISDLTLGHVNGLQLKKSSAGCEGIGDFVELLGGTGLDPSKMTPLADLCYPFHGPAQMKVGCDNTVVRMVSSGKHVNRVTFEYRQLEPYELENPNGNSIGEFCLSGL

[2] = target: T1, Corticotropin-releasing factor receptor 2/Corticotropin-releasing factor-binding protein; assay: activators of CRF receptor 2 with binding protein – uHTS hits, confirmation (AID 602473); format: functional; conditions: read-out: EC50_Mean
[3] = CRF-BP/CRF-R2 complex antagonists, dose response, cell-based, uHTS hits, 384-well (AID 651639); format: functional, Homo sapiens; conditions: read-out: IC50_Mean
BJ [4] = assay: cytotoxicity toward BJ-TERT fibroblasts, dose response, cell-based, RAS-independent, luminescence (AID 1933); format: functional; conditions: Homo sapiens
BJ [5] = assay: cells; format: functional, cell-based; conditions: Homo sapiens
BJ [6] = assay: cytotoxicity toward BJ-TERT-LT-ST fibroblasts, dose response, cell-based, RAS-independent, luminescence (AID 1935); format: functional; conditions: Homo sapiens;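 also: BJ fibroblasts immortalized with TERT plus LT and ST oncogenes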
[7] = cytotoxicity toward DRD oncogenic fibroblasts, dose response, cell-based, non-viral oncogenic, luminescence (AID 1934); format: functional; conditions: Homo sapiens
[8] = Luminescence Cell-Based Dose Retest to Confirm Inhibitors of Cancer Stem Cells. [Related pubchem assays (depositor defined):AID2717, AID2721]; format: functional; conditions: Homo sapiens
cells [9] = format: functional, cell-based
cells [10] = format: functional, cell-based; remark: listed apart in the source
[11] = target: T2, Heat shock factor protein 1 (Mus musculus, UniProt P38532); assay: HSF1 potentiators in luciferase reporter cells, confirmation, cell-based, NIH3T3, luminescence, dose retest (AID 435004); format: functional;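 also: stress induced by proteasome inhibitor MG132 added 30 min after compound; luciferase reporter driven by HSF1 response element in NIH3T3 cells; actives raise luminescence as potentiators of the MG132 stress response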
T2 sequence (P38532 whole entry): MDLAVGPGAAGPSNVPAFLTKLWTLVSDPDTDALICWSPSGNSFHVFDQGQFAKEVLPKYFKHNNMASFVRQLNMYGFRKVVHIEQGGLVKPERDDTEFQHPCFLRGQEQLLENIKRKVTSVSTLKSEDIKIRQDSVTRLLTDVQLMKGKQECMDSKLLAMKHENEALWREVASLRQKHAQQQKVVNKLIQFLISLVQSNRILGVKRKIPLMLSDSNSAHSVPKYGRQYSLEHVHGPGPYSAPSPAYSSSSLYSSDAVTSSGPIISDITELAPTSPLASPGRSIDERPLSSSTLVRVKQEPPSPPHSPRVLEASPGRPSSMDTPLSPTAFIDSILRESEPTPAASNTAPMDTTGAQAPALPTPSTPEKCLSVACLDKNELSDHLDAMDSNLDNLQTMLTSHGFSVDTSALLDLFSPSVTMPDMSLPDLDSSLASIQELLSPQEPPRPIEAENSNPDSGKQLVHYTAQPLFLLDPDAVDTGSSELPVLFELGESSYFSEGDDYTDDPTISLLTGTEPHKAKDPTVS

[12] = target: T3, Replicative DNA helicase DnaB (Mycobacterium tuberculosis, UniProt P9WMR3); assay: DnaB intein splicing inhibitors, dose response, biochemical, cell-free fluorescence (AID 449749); format: functional
T3 sequence (P9WMR3 whole entry): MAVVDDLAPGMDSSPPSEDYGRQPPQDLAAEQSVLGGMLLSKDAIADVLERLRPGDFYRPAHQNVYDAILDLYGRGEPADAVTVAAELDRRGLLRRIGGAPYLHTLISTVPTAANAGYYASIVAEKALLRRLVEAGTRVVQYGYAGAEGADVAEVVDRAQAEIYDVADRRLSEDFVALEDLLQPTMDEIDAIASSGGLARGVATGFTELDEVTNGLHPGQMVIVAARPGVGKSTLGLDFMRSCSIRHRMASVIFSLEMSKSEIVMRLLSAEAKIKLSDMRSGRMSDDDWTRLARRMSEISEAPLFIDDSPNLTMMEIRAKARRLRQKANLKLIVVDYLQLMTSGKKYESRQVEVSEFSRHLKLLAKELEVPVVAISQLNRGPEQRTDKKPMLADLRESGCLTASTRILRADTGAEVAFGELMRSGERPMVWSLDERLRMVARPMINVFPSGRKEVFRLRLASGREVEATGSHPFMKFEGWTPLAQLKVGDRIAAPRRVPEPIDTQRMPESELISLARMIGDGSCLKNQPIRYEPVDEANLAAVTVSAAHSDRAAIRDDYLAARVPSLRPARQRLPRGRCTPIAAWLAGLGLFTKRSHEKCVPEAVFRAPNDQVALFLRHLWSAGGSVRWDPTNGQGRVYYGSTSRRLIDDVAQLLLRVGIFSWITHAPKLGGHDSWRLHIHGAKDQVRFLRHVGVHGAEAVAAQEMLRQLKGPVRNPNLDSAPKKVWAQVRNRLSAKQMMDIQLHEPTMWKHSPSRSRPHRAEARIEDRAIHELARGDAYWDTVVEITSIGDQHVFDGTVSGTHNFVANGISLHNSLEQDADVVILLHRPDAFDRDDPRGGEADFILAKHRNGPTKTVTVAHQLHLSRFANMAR

Protein RecA = target: T4, Protein RecA (Mycobacterium tuberculosis, UniProt P9WHJ3); assay: Fluorescence Cell-Free Homogeneous Dose Retest to Identify Inhibitors of RecA-Intein Splicing Activity. [Related pubchem assays (depositor defined):AID2097, AID2223, AID489010, AID492950]; format: functional
T4 sequence (P9WHJ3 whole entry): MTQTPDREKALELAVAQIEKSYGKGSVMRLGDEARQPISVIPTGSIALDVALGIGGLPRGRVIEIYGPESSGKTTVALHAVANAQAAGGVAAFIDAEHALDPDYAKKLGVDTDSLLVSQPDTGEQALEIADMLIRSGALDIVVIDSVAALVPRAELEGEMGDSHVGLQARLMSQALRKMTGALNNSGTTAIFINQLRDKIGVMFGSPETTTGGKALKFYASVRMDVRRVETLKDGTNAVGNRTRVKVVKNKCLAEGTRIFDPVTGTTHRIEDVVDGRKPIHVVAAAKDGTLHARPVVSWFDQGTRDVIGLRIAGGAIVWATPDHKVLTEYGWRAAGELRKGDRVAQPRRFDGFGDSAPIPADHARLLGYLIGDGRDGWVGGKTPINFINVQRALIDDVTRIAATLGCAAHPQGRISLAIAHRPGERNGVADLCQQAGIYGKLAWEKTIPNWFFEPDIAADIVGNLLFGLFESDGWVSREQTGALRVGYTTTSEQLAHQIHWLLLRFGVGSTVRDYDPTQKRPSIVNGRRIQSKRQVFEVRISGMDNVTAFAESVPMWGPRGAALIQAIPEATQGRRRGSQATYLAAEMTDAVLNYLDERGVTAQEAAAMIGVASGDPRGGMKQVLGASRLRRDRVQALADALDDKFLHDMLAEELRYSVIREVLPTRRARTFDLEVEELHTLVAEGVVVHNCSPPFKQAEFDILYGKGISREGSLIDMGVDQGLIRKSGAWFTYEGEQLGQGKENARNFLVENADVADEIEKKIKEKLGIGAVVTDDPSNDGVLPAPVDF

Structure (SMILES): COc1ccc(C2N(Cc3ccccc3)CC(=O)N2/N=C(\C)c2ccccc2)cc1 (centres undefined)
- IC50 [1]: 13.8 µM (active)
- EC50 [2]: > 53 µM (inactive)
- IC50 [3]: 4.93 µM (active)

Structure (SMILES): CSc1nsc(SCc2ccc(Cl)cc2)n1
- EC50 (BJ [4]): > 150 µM (not active)
- EC50 (BJ [5]): > 150 µM (not active)
- EC50 (BJ [6]): > 150 µM (inconclusive)
- EC50 [7]: > 150 µM (not active)

Structure (SMILES): O=[N+]([O-])c1cccc(C2NCC(c3ccccc3Cl)c3c2[nH]c2ccccc32)c1 (centres undefined)
- AC50 [8]: 2.69 µM (active)

Structure (SMILES): Cc1onc(-c2ccccc2)c1C(=O)Nc1ccc(S(=O)(=O)N2CCCC2)cc1
- EC50 (cells [9]): > 350 µM (not active)
- EC50 (cells [10]): > 350 µM (not active)

Structure (SMILES): CCOc1ccc(N2CC(C(=O)Nc3ccccc3C(=O)NC3CC3)CC2=O)cc1 (centres undefined)
- EC50 (cells [9]): > 350 µM (not active)
- EC50 (cells [10]): > 350 µM (not active)

Structure (SMILES): CCOc1ccc(CCNC(=O)COC(=O)Cn2nc(C)c([N+](=O)[O-])c2C)cc1OCC
- EC50 (cells [9]): > 350 µM (not active)
- EC50 (cells [10]): > 350 µM (not active)

Structure (SMILES): COc1cc(NC(=O)CSc2nc3ccccc3n2-c2ccccc2)c(C)cc1[N+](=O)[O-]
- EC50 (BJ [4]): > 150 µM (not active)
- EC50 (BJ [5]): > 150 µM (not active)
- EC50 (BJ [6]): > 150 µM (inconclusive)
- EC50 [7]: > 150 µM (not active)
- IC50 [1]: > 47.1 µM (inactive)
- EC50 [2]: > 53 µM (inactive)

Structure (SMILES): CC(C)Sc1nc(N)c2c3c(sc2n1)CN(C)CC3
- EC50 (cells [9]): > 350 µM (not active)
- EC50 (cells [10]): > 350 µM (not active)

Structure (SMILES): Cc1ccc(-c2cc(NC(=O)CCl)n(-c3ccccc3)n2)cc1
- AC50 [8]: 5.24 µM (active)
- EC50 [11]: 9.36 µM (active)
- AC50 [12]: 16.2 µM (active)
- EC50 (Protein RecA): 5.68 µM (active)

Structure (SMILES): CCCCCCCCCCCC(=O)NC(Cc1ccc(OC)c([N+](=O)[O-])c1)C(=O)O (centres undefined)
- IC50 [1]: 11.6 µM (active)
- EC50 [2]: > 53 µM (inactive)
- IC50 [3]: > 20 µM (inactive)
